A word on the viability: it is a read-out of living cells in per cent, often relative to untreated cells.

Test system in the first data set: not listed separately
Nature of the data set: in vitro. It counts as cell-based. Particulars: human.
Take `CC(=O)O[C@@]12CO[C@@H]1C[C@H](O)[C@@]1(C)C(=O)[C@H](O)C3=C(C)[C@@H](OC(=O)[C@H](O)[C@@H](NC(=O)OC(C)(C)C)c4ccccc4)C[C@@](O)([C@@H](OC(=O)c4ccccc4)[C@H]21)C3(C)C` [Docetaxel]: the viability at 10 µM amounted to 80.8 ± 3%.

With `O=c1[nH]cc(F)c(=O)[nH]1` [Fluorouracil], the viability at 10 µM was determined as 97 ± 1.7%.

As for `CCCCC[C@H](O)/C=C/[C@H]1[C@H](O)CC(=O)[C@@H]1CCCCCCC(=O)O` [Alprostadil], the viability at 10 µM came to 100 ± 2.9%.

On to `CN(C)CCCN1c2ccccc2Sc2ccc(Cl)cc21` [Chlorpromazine], for which the viability at 10 µM turned out to be 88.6 ± 4.3%.

Take `Clc1ccc(COC(Cn2ccnc2)c2ccc(Cl)cc2Cl)cc1` (centres unmarked) [Econazole]: the viability at 10 µM is 88.2 ± 1.8%.

Turning to `Nc1nc(Cl)nc2c1ncn2[C@H]1C[C@H](O)[C@@H](CO)O1` [Cladribine], the viability at 10 µM is 108 ± 2.7%.

The next data set deals with Omicron SARS-CoV-2 lentiviral pseudovirus.
Assay: not given
Conditions: not given
It counts as cell-based.
Turning to `CSc1ccc2c(c1)N(CCC1CCCCN1C)c1ccccc1S2` (centres unmarked) [Thioridazine], the “inhibition of Omicron pseudovirus entry (in words)” value (shortened to “inhibition”) is given as “enhanced inhibitory effects”.

As to `COC(=O)C1=C(C)NC(C)=C(C(=O)OCCCN2CCC(c3ccccc3)(c3ccccc3)CC2)[C@@H]1c1cccc([N+](=O)[O-])c1` [Dexniguldipine], the “inhibition” value is “strong inhibition”.

Turning to `CN(C)CCCN1c2ccccc2CCc2ccc(Cl)cc21` [Clomipramine], the “inhibition” value was “enhanced inhibitory effects”.

The same data set, now with this note: Omicron pseudovirus, CaCo2 cells.
Take `CN1CCN(CCCN2c3ccccc3Sc3ccc(C(F)(F)F)cc32)CC1` [Trifluoperazine]: the “inhibition” value was “enhanced inhibitory effects”.

Consider `CN(C)CCCN1c2ccccc2Sc2ccc(Cl)cc21` [Chlorpromazine], for which the “inhibition” value was “enhanced inhibitory effects”.

Values taken from publication PMC9108036 (Biomedicine & Pharmacotherapy, 2022).
